# *1 amine or outer side, *2 acyl side, *3 side chain or, on linkers, in order; H or OH if unused. Where a SMILES comes first, the peptide text is derived from it. Bridges are numbered along the chain shown (N, C = ends). [ ]: non-standard residue; d: D form. X11 = O=C(C[*:1])N1CCN(c2ccc(-c3nc(-c4ccc(N5CCN(C(=O)C[*:2])CC5)cc4)nc(-c4ccc(N5CCN(C(=O)C[*:3])CC5)cc4)n3)cc2)CC1; X14 = CC(C)(C)[C@H](N[*:3])C(=O)C[C@@H](CSCc1ccc(-c2nc(-c3ccc(C[*:1])cc3)nc(-c3ccc(C[*:2])cc3)n2)cc1)C(N)=O; X10 = O=C(C[*:1])N1CCC(N2CCN(c3nc(N4CCN(C5CCN(C(=O)C[*:2])CC5)CC4)nc(N4CCN(C5CCN([*:3])CC5)CC4)n3)CC2)CC1; X12 = CC(C)(C)[C@H](N[*:3])C(=O)C[C@@H](CSCc1ccc(CN(Cc2ccc(C[*:1])cc2)Cc2ccc(C[*:2])cc2)cc1)C(N)=O; X6 = O=C(C[*:1])N1Cc2cccc(c2)CN(C(=O)C[*:2])Cc2cccc(c2)CN(C(=O)C[*:3])Cc2cccc(c2)C1; X3 = CC(C)(C)[C@H](N[*:1])C(=O)C[C@@H](CSCc1ccc(C(=O)[*:2])cc1)C(N)=O; X4 = O=C(c1ccc(C[*:1])cc1)N1CN(C(=O)c2ccc(C[*:2])cc2)CN([*:3])C1; X9 = CC(C)(C)[C@H](N[*:1])C(=O)C[C@@H](CSCC(=O)[*:2])C(N)=O; 1Nal = N[C@@H](Cc1cccc2ccccc12)C(=O)O; Tle = CC(C)(C)[C@H](N)C(=O)O
# Biological target: MT1-MMP hemopexin domain (Homo sapiens, UniProt P50281)
# Test: MT1-MMP Direct Binding Fluorescence Polarization (Anisotropy) Assay
# Conditions: MT1-MMP direct binding FP, n=2
# Protocol: Direct Binding Fluorescence Polarization or Anisotropy Assays are performed by titrating a constant concentration of fluorescent tracer (here, the fluoresceinated bicyclic peptide to be studied) with its binding partner (here, the MT1-MMP hemopexin domain). As the concentration of binding partner increases during the titration, the polarization signal changes in proportion to the fraction of bound and unbound material. This allows determination of […] (Kd) quantitatively. Assay data can be fit using standard ligand binding equations.
# Typically, concentrations of the tracer are ideally well below the Kd of the tracer:titrant pair, and concentrations chosen are usually at ˜1 nM or less. The titrant (binding partner) concentration is varied from 0.1 nM up to typically 5 μM. The range is chosen such that the maximum change in fluorescent polarization can be observed. Buffers employed are phosphate buffered saline in the presence of 0.01% Tween. Experiments were run in black 384 well low-bind/low volume plates (Corning 3820), and the fluorescent polarization signal was measured using a BMG Pherastar FS plate reader. Fluorescent tracers referred to in the text are bicyclic peptides that have been fluoresceinated using 5,6-carboxyfluorescein. Fluoresceination may be performed on the N-terminal amino group of the peptide, which is separated from the bicycle core sequence by a sarcosine spacer (usually Sar5). This can be done during Fmoc solid phase synthesis or post-synthetically (after cyclization with the molecular scaffold reagent and purification) if the N-terminal amino group is unique to the peptide. Fluoresceination can also be performed on the C-terminus, usually on a Lysine introduced as the first C-terminal residue, which is then separated from the bicycle core sequence by a sarcosine spacer (usually Sar6). Thus, N-terminal tracers can have a molecular format described as Fluo-Gly-Sar5-A(BicycleCoreSequence), and (BicycleCoreSequence)-A-Sar6-K(Fluo) for a C-terminally fluoresceinated construct.
row,SMILES,Ki [nM]
1,C[C@H](N)C(=O)N[C@H]1CSCC(=O)N2CCN(CC2)c2ccc(cc2)-c2nc3nc(n2)-c2ccc(cc2)N2CCN(CC2)C(=O)CSC[C@H](NC(=O)[C@@H](C)NC(=O)[C@H](Cc2cccc4ccccc24)NC(=O)[C@H](CCC(=O)O)NC(=O)[C@H](CC(N)=O)NC(=O)[C@@H](C)NC1=O)C(=O)N[C@@H](CCC(=O)O)C(=O)N[C@@H](CC(=O)O)C(=O)N[C@@H](Cc1ccccc1)C(=O)N[C@@H](Cc1ccc(O)cc1)C(=O)N[C@@H](CC(=O)O)C(=O)N[C@@H](C(C)(C)C)C(=O)N[C@H](C(N)=O)CSCC(=O)N1CCN(CC1)c1ccc-3cc1 [I-94] (H-AC[dA]NE[1Nal][dA]CEDFYD[Tle]C-NH2; linker 2-8-15 via X11),< 500
2,C[C@H](N)C(=O)N[C@H]1CSCc2ccc(cc2)C(=O)N2CN3CN(C2)C(=O)c2ccc(cc2)CSC[C@H](NC(=O)[C@@H](C)NC(=O)[C@H](Cc2cccc4ccccc24)NC(=O)[C@H](CCC(=O)O)NC(=O)[C@H](CC(N)=O)NC(=O)[C@@H](C)NC1=O)C(=O)N[C@@H](CCC(=O)O)C(=O)N[C@@H](CC(=O)O)C(=O)N[C@@H](Cc1ccccc1)C(=O)N[C@@H](Cc1ccc(O)cc1)C(=O)N[C@@H](CC(=O)O)C(=O)N[C@@H](C(C)(C)C)C(=O)C[C@H](C(N)=O)CSCc1ccc(cc1)C3=O [I-93] (H-AC[dA]NE[1Nal][dA]CEDFYD[X3]; linker 2-8-C via X4),< 500
3,C[C@H](N)C(=O)N[C@H]1CSCc2ccc(cc2)-c2nc3nc(n2)-c2ccc(cc2)CSC[C@H](NC(=O)[C@@H](C)NC(=O)[C@H](Cc2cccc4ccccc24)NC(=O)[C@H](CCC(=O)O)NC(=O)[C@H](CC(N)=O)NC(=O)[C@@H](C)NC1=O)C(=O)N[C@@H](CCC(=O)O)C(=O)N[C@@H](CC(=O)O)C(=O)N[C@@H](Cc1ccccc1)C(=O)N[C@@H](Cc1ccc(O)cc1)C(=O)N[C@@H](CC(=O)O)C(=O)N[C@@H](C(C)(C)C)C(=O)C[C@H](C(N)=O)CSCc1ccc-3cc1 [I-90] (H-AC[dA]NE[1Nal][dA]CEDFYD; linker 2-8-C via X14),< 500
4,C[C@H](N)C(=O)N[C@H]1CSCC(=O)N2CCC(CC2)N2CCN(CC2)c2nc3nc(n2)N2CCN(CC2)C2CCN(CC2)C(=O)CSC[C@H](NC(=O)[C@@H](C)NC(=O)[C@H](Cc2cccc4ccccc24)NC(=O)[C@H](CCC(=O)O)NC(=O)[C@H](CC(N)=O)NC(=O)[C@@H](C)NC1=O)C(=O)N[C@@H](CCC(=O)O)C(=O)N[C@@H](CC(=O)O)C(=O)N[C@@H](Cc1ccccc1)C(=O)N[C@@H](Cc1ccc(O)cc1)C(=O)N[C@@H](CC(=O)O)C(=O)N[C@@H](C(C)(C)C)C(=O)C[C@H](C(N)=O)CSCC(=O)N1CCC(CC1)N1CCN3CC1 [I-91] (H-AC[dA]NE[1Nal][dA]CEDFYD[X9]; linker 2-8-C via X10),< 500

# The next lines start with the values.
row,Ki [nM],SMILES
1,≥ 10000,C[C@H](N)C(=O)N[C@H]1CSCC(=O)N2Cc3cccc(c3)CN3Cc4cccc(c4)CN(Cc4cccc(c4)C2)C(=O)CSC[C@H](NC(=O)[C@@H](C)NC(=O)[C@H](Cc2cccc4ccccc24)NC(=O)[C@H](CCC(=O)O)NC(=O)[C@H](CC(N)=O)NC(=O)[C@@H](C)NC1=O)C(=O)N[C@@H](CCC(=O)O)C(=O)N[C@@H](CC(=O)O)C(=O)N[C@@H](Cc1ccccc1)C(=O)N[C@@H](Cc1ccc(O)cc1)C(=O)N[C@@H](CC(=O)O)C(=O)N[C@@H](C(C)(C)C)C(=O)N[C@H](C(N)=O)CSCC3=O [I-44] (H-AC[dA]NE[1Nal][dA]CEDFYD[Tle]C-NH2; linker 2-8-15 via X6)
2,< 500,C[C@H](N)C(=O)N[C@H]1CSCc2ccc(cc2)CN2Cc3ccc(cc3)CSC[C@@H](C(N)=O)CC(=O)[C@H](C(C)(C)C)NC(=O)[C@H](CC(=O)O)NC(=O)[C@H](Cc3ccc(O)cc3)NC(=O)[C@H](Cc3ccccc3)NC(=O)[C@H](CC(=O)O)NC(=O)[C@H](CCC(=O)O)NC(=O)[C@H](CSCc3ccc(cc3)C2)NC(=O)[C@@H](C)NC(=O)[C@H](Cc2cccc3ccccc23)NC(=O)[C@H](CCC(=O)O)NC(=O)[C@H](CC(N)=O)NC(=O)[C@@H](C)NC1=O [I-96] (H-AC[dA]NE[1Nal][dA]CEDFYD; linker 2-8-C via X12)
